Laboratory results from article PMC8765781, “A platform of assays for the discovery of anti-Zika small-molecules with activity in a 3D-bioprinted outer-blood-retina model” (PLoS ONE, 2022).
Where two headings read alike, the source gives them in different places.

Tests used:
[1] = test system: DENV (Dengue virus type 2, strain New Guinea C)
[2] = test system: ZIKV-RLuc (Cambodian strain FSS13025); test: microbe, parasite or virus in culture; type: cell-based, Zika virus; conditions: read-out: Rluc-ZIKV (ZIKV Antiviral Assays), IC50
[3] = test system: mCherry-ZIKV in human neuronal progenitor cells; test: microbe, parasite or virus in culture; type: cell-based, Zika virus
[4] = test system: ZIKV-mCherry (Cambodian strain FSS13025); test: microbe, parasite or virus in culture; type: cell-based, Zika virus
[5] = test system: caspase-3 activity induced by ZIKV in Vero cells; test: cells; type: cell-based; conditions: read-out: Caspase 3 (ZIKV Antiviral Assays), IC50
[6] = test system: YFV (YFV 17D)
[7] = test system: HepG2 cells
[8] = test system: Vero cells
[9] = test system: ZIKV
[10] = test system: WNV (Kern515/WN02)
[11] = test system: wild-type ZIKV (Ugandan MR766 strain) in Vero cells; test: ZIKV cytopathic effect (CPE) inhibition qHTS assay, CellTiter-Glo readout; type: cell-based, Zika virus; conditions: for IC50: read-out: ZIKV-infection (CPE, ZIKV Antiviral Assays), IC50
[12] = test system: human neuronal progenitor cells (NPC)
[13] = in vitro; conditions: African green monkey
[14] = test system: Solute carrier organic anion transporter family member 1B1; conditions: cited from earlier work
[15] = target: Tyrosine-protein phosphatase non-receptor type 1; conditions: cited from earlier work
[16] = in vitro; conditions: human
[17] = test system: Transcription factor AP-1; conditions: cited from earlier work
[18] = Zika virus, Vero, read-out: Log AC50 (M) (converted)

## 5-methylcytidine [NCGC00484060-01, reference compound]
[1]
  DENV active Yes/No: No
[2]
  IC50: 18.5 µM
[3]
  CC-v2 (curve class): -2.2
  Efficacy: -64.821
  Log AC50 (M): -4.4 M
  Max Resp: -51.196
[3]; read-out: AC50
  AC50: 39.8 µM
[3]; read-out: NPC (ZIKV Antiviral Assays), IC50
  IC50: 39.8 µM
[4]
  CC-v2 (curve class of the dose response curve): -1.2
  Efficacy (difference between neutral response and maximum compound response): -45.337
  Log AC50 (M): -5.0741 M
  Max Resp (difference between neutral response and response at highest compound concentration): -100.16
[4]; read-out: AC50
  AC50: 8.43e-06 M
[5]; ZIKV-infected Vero cells, 48 hr, unit inferred
  IC50: > 48 µM
[6]
  SI value YFV (CC50/EC50): 3
  Selectivity Index YFV (CC50/EC50): 3
  YFV active Yes/No: Yes
[7]
  CC50: > 30 µM
[8]
  CC50: > 50 µM
[9]
  SI value ZIKV (CC50/EC50): 28
  Selectivity Index ZIKV (CC50/EC50): 28
  ZIKV active Yes/No: Yes
[10]
  SI value WHV (CC50/EC50): 1.8
  Selectivity Index WHV (CC50/EC50): 2
  WHV active Yes/No: No
[11]
  CC-v2 (curve class classification of the dose response curve): -1.2
  Efficacy: -42.621
  Log AC50 (M): -4.8362 M
  Max Resp: -39.681
  IC50: 14.6 µM
[11]; read-out: AC50
  AC50: 1.46e-05 M
[12]
  CC50: 19.2 µM

## CC1OC(OC2C(OC(=O)[C@]34CCC(C)(C)C[C@H]3C3=CCC5[C@@]6(C)CC[C@H](OC7OC(C(=O)O)C(O)C(O)C7O)C(C)(C)C6CC[C@@]5(C)[C@]3(C)CC4O)OC(CO)C2O)C(O)C(O)C1OC1OCC(O)C(O)C1O (some centres unmarked) [NCGC00381102-01]
[13]; Vero cells
  CC50 at 48 h: > 50 µM
[14]
  -Log(IC50) M, Solute carrier organic anion transporter family member 1B1: Solute carrier organic anion transporter family member 1B1 -Log(IC50) M~5.40~-Log(IC50) M~0.8333~Target
[2]; Zika virus, Vero, 48 h
  IC50: 6.19 µM
[4]
  CC-v2 (curve class of the dose response curve): -1.4
  Efficacy (difference between neutral response and maximum compound response): -69.614
  Max Resp (difference between neutral response and response at highest compound concentration): -99.592
[5]; Zika virus, Vero, 48 h
  IC50: > 48 µM
[11]
  CC-v2 (curve class classification of the dose response curve): -3
  Efficacy: -33.279
[11]; Zika virus, Vero
  AC50: 1.55e-05 M
[11]; Zika virus, Vero, 48 h
  IC50: 15.5 µM
[11]; [18]
  AC50: 1.55e-05 M

## CC1(C)CC[C@]2(C(=O)O)CC[C@]3(C)C(=CC[C@@H]4[C@@]5(C)CC[C@H](O[C@@H]6O[C@H](C(=O)O)[C@@H](O)[C@H](O)[C@H]6O)C(C)(C)[C@@H]5CC[C@]43C)[C@@H]2C1 [NCGC00384528-01, Calenduloside E]
[13]; Vero cells
  CC50 at 48 h: > 50 µM
[2]; Zika virus, Vero, 48 h
  IC50: 11 µM
[4]
  CC-v2 (curve class of the dose response curve): -1.2
  Efficacy (difference between neutral response and maximum compound response): -57.341
  Max Resp (difference between neutral response and response at highest compound concentration): -100.305
[4]; Zika virus, Vero
  AC50: 4.99e-06 M
[4]; [18]
  AC50: 4.99e-06 M
[5]; Zika virus, Vero, 48 h
  IC50: 0.001 µM
[15]
  -Log(IC50) M, Tyrosine-protein phosphatase non-receptor type 1: Tyrosine-protein phosphatase non-receptor type 1 -Log(IC50) M~5.46~-Log(IC50) M~0.7284~Target
[11]
  Efficacy: -27.436
[11]; Zika virus, Vero
  AC50: 1.37e-05 M
[11]; Zika virus, Vero, 48 h
  IC50: 13.7 µM
[11]; [18]
  AC50: 1.37e-05 M
[16]
  CC50: > 30 µM

## CC1(C)CC[C@]2(C(=O)O)CC[C@]3(C)C(=CCC4[C@@]5(C)CC[C@H](O[C@H]6O[C@H](C(=O)O)[C@@H](O)[C@H](O[C@@H]7O[C@H](CO)[C@H](O)[C@H](O)[C@H]7O)[C@H]6O)C(C)(C)C5CC[C@]43C)[C@@H]2C1 (some centres unmarked) [NCGC00385211-01, Calenduloside G]
[13]
  CC50 at 48 h: > 50 µM
[2]; Zika virus, Vero, 48 h
  IC50: 2.2 µM
[4]
  CC-v2 (curve class of the dose response curve): -1.3
  Efficacy (difference between neutral response and maximum compound response): -66.223
  Max Resp (difference between neutral response and response at highest compound concentration): -100.305
[4]; Zika virus, Vero
  AC50: 3.19e-06 M
[4]; [18]
  AC50: 3.19e-06 M
[5]; Zika virus, Vero, 48 h
  IC50: 1.39 µM
[17]
  -Log(IC50) M, Transcription factor AP-1: Transcription factor AP-1 -Log(IC50) M~4.74~-Log(IC50) M~0.8101~Target
[11]
  Efficacy: -58.411
[11]; Zika virus, Vero
  AC50: 1.23e-05 M
[11]; Zika virus, Vero, 48 h
  IC50: 12.3 µM
[11]; [18]
  AC50: 1.23e-05 M
